# Data published in patent US20100249058A1, “FEED ADDITIVE AND FEED” (IDEMITSU KOSAN CO., LTD., priority 2006, published 2010).
# Tests used:
# Type in all cases: cell-based
# [1] = system: Staphylococcus aureus; assay: Minimum inhibitory concentration (MIC) measurement; details: 37° C., about 20 hours, aerobic
# Description: (§1) Minimum inhibitory concentrations (MICs) of each of the bacteria shown in Table 1 were measured for the MEL and rhamnolipids by the following procedures.
# (§2) The above-mentioned bacteria were precultured in a bouillon medium for sensitivity determination (NISSUI PHARMACEUTICAL CO., LTD.). The concentrations of the bacteria in the culture solutions were adjusted to about 1.0×10^5 to 10^6 CFU/ml with physiological saline, and the bacteria were inoculated into the measurement mediums. As the measurement mediums, a medium for sensitivity measurement (NISSUI PHARMACEUTICAL CO., LTD.) was used for Staphylococcus aureus, Staphylococcus epidermidis, and Bacillus subtilis, and a blood agar medium (heart infusion medium: NISSUI PHARMACEUTICAL CO., LTD., sheep sterile defibrinated blood: Kohjin Bio Co. Ltd.) was used for Streptococcus suis and Streptococcus bovis. Culture was performed at 37° C. for about 20 hours under aerobic conditions for Staphylococcus aureus, Staphylococcus epidermidis, and Bacillus subtilis or under 5% CO2 conditions for Streptococcus suis and Streptococcus bovis. After completion of culture, the MICs were measured.
# (§3) The MEL crude purified product obtained in section <1> (purity 69%) was used as MEL, and the rhamnolipid crude purified product obtained in section <2> (purity 55%) was used as rhamnolipids. Meanwhile, for the purpose of comparison, MICs of sucrose ester (sucrose manodecanoate: manufactured by SIGMA-ALDRICH Japan K.K.), mannose (manufactured by Wako Pure Chemical Industries, Ltd.), and rhamnose (manufactured by SIGMA-ALDRICH Japan K.K.) were measured.
# [2] = system: Streptococcus bovis; assay: Minimum inhibitory concentration (MIC) measurement; details: blood agar medium, 37° C., about 20 hours, 5% CO2
# Description: as §1, §2, §3
# [3] = system: Bacillus subtilis; assay: Minimum inhibitory concentration (MIC) measurement; details: 37° C., about 20 hours, aerobic
# Description: as §1, §2, §3
# [4] = system: Streptococcus suis; assay: Minimum inhibitory concentration (MIC) measurement; details: blood agar medium, 37° C., about 20 hours, 5% CO2
# Description: as §1, §2, §3
# [5] = system: Staphylococcus epidermidis; assay: Minimum inhibitory concentration (MIC) measurement; details: 37° C., about 20 hours, aerobic
# Description: as §1, §2, §3
# [6] = system: Staphylococcus, Streptococcus, and Bacillus bacteria; assay: Evaluation of antibiotic activities (summary over the tested bacteria); details: result in words
# Description: as §1
# as §2, with “Culture was performed at 37° C. for about 20 hours under aerobic conditions for Staphylococcus aureus, Staphylococcus epidermidis, and Bacillus subtilis or under 5% CO2 conditions for Streptococcus suis and Streptococcus bovis.” left out
# as §3
Compound,Minimum inhibitory concentration (MIC) [1],Minimum inhibitory concentration (MIC) [2],Minimum inhibitory concentration (MIC) [3],Minimum inhibitory concentration (MIC) [4],Minimum inhibitory concentration (MIC) [5],antibiotic activities [6]
"C[C@H](O)[C@H](O)[C@@H](O)[C@@H](O)C=O [Rhamnose, rhamnose]",<1600,<1600,<1600,<1600,<1600,no antibiotic activities
sucrose manodecanoate [Sucrose ester],<1600,800,400,800,<1600,
